Experimental data from PubChem BioAssay AID248 (DTP/NCI, 2004).
“And” between values parts separate entries of the source, which are not always exact repeats. Equal entries are not always repeated. Toxic doses and inconclusive results are not listed. No stated cut-off is given here; in the data, active means T/C of 150% or more; inactive means T/C below 125%.

Test system: L1210 leukemia ip in BDF1 mice, survival T/C
Experiment: NCI In Vivo Anticancer Drug Screen. Data for tumor model L1210 Leukemia (intraperitoneal) in B6D2F1 (BDF1) mice
Conditions: endpoint: mean survival time, higher = longer survival
Method in brief: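 Mice bearing the transplanted tumor received compound or vehicle. Survival of the treated group was divided by that of the vehicle-treated control group to give the ratio.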

[1] = dose: 12.5 mg/kg/injection, schedule: Q01DX009 (ip), vehicle: saline
[2] = dose: 12.5 mg/kg/injection, schedule: Q04DX003 (ip), vehicle: saline
[3] = dose: 25.0 mg/kg/injection, schedule: Q01DX009 (ip), vehicle: saline
[4] = dose: 25.0 mg/kg/injection, schedule: Q04DX003 (ip), vehicle: saline
[5] = dose: 100.0 mg/kg/injection, schedule: Q01DX001 (ip), vehicle: Klucel (hydroxypropylcellulose) (HPC)
[6] = dose: 200.0 mg/kg/injection, schedule: Q01DX001 (ip), vehicle: Klucel (hydroxypropylcellulose) (HPC)
[7] = dose: 50.0 mg/kg/injection, schedule: Q01DX009 (ip), vehicle: saline
[8] = dose: 100.0 mg/kg/injection, schedule: Q04DX002 (ip), vehicle: Klucel (hydroxypropylcellulose) (HPC)
[9] = dose: 200.0 mg/kg/injection, schedule: Q04DX002 (ip), vehicle: Klucel (hydroxypropylcellulose) (HPC)
[10] = dose: 400.0 mg/kg/injection, schedule: Q04DX002 (ip), vehicle: Klucel (hydroxypropylcellulose) (HPC)
[11] = dose: 100.0 mg/kg/injection, schedule: Q01DX001 (ip), vehicle: other
[12] = dose: 200.0 mg/kg/injection, schedule: Q01DX001 (ip), vehicle: other
[13] = dose: 100.0 mg/kg/injection, schedule: Q04DX002 (ip), vehicle: saline with Tween-80
[14] = dose: 100.0 mg/kg/injection, schedule: Q04DX003 (ip), vehicle: Klucel (hydroxypropylcellulose) (HPC)
[15] = dose: 400.0 mg/kg/injection, schedule: Q04DX003 (ip), vehicle: Klucel (hydroxypropylcellulose) (HPC)

Measured: T/C

CNCC(O)c1cccc(O)c1 (stereo not drawn)
inactive: dose: 1.56 mg/kg/injection, schedule: Q01DX009 (ip), vehicle: saline 94 % of control | dose: 3.12 mg/kg/injection, schedule: Q01DX009 (ip), vehicle: saline 98 % of control | dose: 3.12 mg/kg/injection, schedule: Q04DX003 (ip), vehicle: saline 109 % of control | dose: 6.25 mg/kg/injection, schedule: Q01DX009 (ip), vehicle: saline 94 % of control | dose: 6.25 mg/kg/injection, schedule: Q04DX003 (ip), vehicle: saline 104 % of control | [1] 122 % of control | [2] 96 % of control | [3] 100 % of control | [4] 113 % of control

O=c1oc2ccc(F)cc2c2ccccc12
inactive: [5] 92 % of control | [6] 103 % of control | dose: 400.0 mg/kg/injection, schedule: Q01DX001 (ip), vehicle: Klucel (hydroxypropylcellulose) (HPC) 90 % of control

NC(CCSC(c1ccccc1)(c1ccccc1)c1ccccc1)C(=O)O (stereo not drawn)
inactive: [7] 94 % of control and 103 % of control | dose: 100.0 mg/kg/injection, schedule: Q01DX009 (ip), vehicle: saline 95 % of control and 107 % of control | dose: 200.0 mg/kg/injection, schedule: Q01DX009 (ip), vehicle: saline 97 % of control and 106 % of control | dose: 400.0 mg/kg/injection, schedule: Q01DX009 (ip), vehicle: saline 100 % of control and 108 % of control

O=c1scc(-c2ccc(-c3ccccc3)cc2)s1
inactive: [8] 109 % of control | [9] 95 % of control | [10] 109 % of control

COc1cc(C(C)=O)ccc1OS(C)(=O)=O
inactive: dose: 20.0 mg/kg/injection, schedule: Q01DX009 (ip), vehicle: Klucel (hydroxypropylcellulose) (HPC) 100 % of control | dose: 20.0 mg/kg/injection, schedule: Q04DX003 (ip), vehicle: Klucel (hydroxypropylcellulose) (HPC) 106 % of control | dose: 40.0 mg/kg/injection, schedule: Q01DX009 (ip), vehicle: Klucel (hydroxypropylcellulose) (HPC) 98 % of control | dose: 40.0 mg/kg/injection, schedule: Q04DX003 (ip), vehicle: Klucel (hydroxypropylcellulose) (HPC) 93 % of control | dose: 80.0 mg/kg/injection, schedule: Q01DX009 (ip), vehicle: Klucel (hydroxypropylcellulose) (HPC) 96 % of control | dose: 80.0 mg/kg/injection, schedule: Q04DX003 (ip), vehicle: Klucel (hydroxypropylcellulose) (HPC) 98 % of control

O=[N+]([O-])c1ccccc1N=Cc1ccccc1O.[Co]
inactive: [11] 98 % of control | [12] 104 % of control

C=CCc1cc(OC)c(OCc2ccccc2)cc1[N+](=O)[O-]
inactive: [13] 101 % of control | dose: 200.0 mg/kg/injection, schedule: Q04DX002 (ip), vehicle: saline with Tween-80 87 % of control | dose: 400.0 mg/kg/injection, schedule: Q04DX002 (ip), vehicle: saline with Tween-80 90 % of control

O=C1C=CC(=O)N1c1ccc(Br)c(Cl)c1
inactive: dose: 12.5 mg/kg/injection, schedule: Q04DX002 (ip), vehicle: other 121 % of control | dose: 25.0 mg/kg/injection, schedule: Q04DX002 (ip), vehicle: other 105 % of control | dose: 50.0 mg/kg/injection, schedule: Q04DX002 (ip), vehicle: other 112 % of control

Nc1nccs1
inactive: dose: 0.75 mg/kg/injection, schedule: Q01DX009 (ip), vehicle: carboxymethylcellulose (CMC) 100 % of control | dose: 1.5 mg/kg/injection, schedule: Q01DX009 (ip), vehicle: carboxymethylcellulose (CMC) 103 % of control | dose: 1.5 mg/kg/injection, schedule: Q04DX002 (ip), vehicle: saline with Tween-80 93 % of control | dose: 3.0 mg/kg/injection, schedule: Q01DX009 (ip), vehicle: carboxymethylcellulose (CMC) 100 % of control | dose: 3.0 mg/kg/injection, schedule: Q04DX002 (ip), vehicle: saline with Tween-80 90 % of control | dose: 3.5 mg/kg/injection, schedule: Q04DX002 (ip), vehicle: saline with Tween-80 91 % of control | dose: 6.0 mg/kg/injection, schedule: Q01DX009 (ip), vehicle: carboxymethylcellulose (CMC) 100 % of control | dose: 12.0 mg/kg/injection, schedule: Q01DX009 (ip), vehicle: carboxymethylcellulose (CMC) 103 % of control | dose: 12.0 mg/kg/injection, schedule: Q04DX002 (ip), vehicle: saline with Tween-80 101 % of control and 91 % of control

O=[N+]([O-])c1cc(S(=O)(=O)F)cc(Cl)c1O
inactive: dose: 100.0 mg/kg/injection, schedule: Q01DX009 (ip), vehicle: Klucel (hydroxypropylcellulose) (HPC) 97 % of control | dose: 200.0 mg/kg/injection, schedule: Q01DX009 (ip), vehicle: Klucel (hydroxypropylcellulose) (HPC) 89 % of control

COc1cc(NC(N)=O)cc(OC)c1OC
inactive: dose: 100.0 mg/kg/injection, schedule: Q01DX009 (ip), vehicle: saline sonified 101 % of control | [14] 99 % of control | dose: 200.0 mg/kg/injection, schedule: Q01DX009 (ip), vehicle: saline sonified 95 % of control | dose: 200.0 mg/kg/injection, schedule: Q04DX003 (ip), vehicle: Klucel (hydroxypropylcellulose) (HPC) 94 % of control | dose: 400.0 mg/kg/injection, schedule: Q01DX009 (ip), vehicle: saline sonified 101 % of control | [15] 99 % of control

S=c1nc[nH]c2c1ncn2/N=C/c1ccccc1
inactive: [11] 96 % of control | [12] 90 % of control | dose: 400.0 mg/kg/injection, schedule: Q01DX001 (ip), vehicle: other 96 % of control

O=S(c1ccccc1)c1ccccc1
inactive: dose: 75.0 mg/kg/injection, schedule: Q01DX009 (ip), vehicle: Klucel (hydroxypropylcellulose) (HPC) 98 % of control | [8] 102 % of control | dose: 150.0 mg/kg/injection, schedule: Q01DX009 (ip), vehicle: Klucel (hydroxypropylcellulose) (HPC) 102 % of control | [9] 98 % of control | dose: 300.0 mg/kg/injection, schedule: Q01DX009 (ip), vehicle: Klucel (hydroxypropylcellulose) (HPC) 95 % of control | [10] 112 % of control

CCC1CC(C)C(=O)NC1=O (stereo not drawn)
inactive: [1] 95 % of control | [2] 91 % of control | [3] 100 % of control | [4] 110 % of control | [7] 95 % of control | dose: 50.0 mg/kg/injection, schedule: Q04DX003 (ip), vehicle: saline 96 % of control

Cc1ccc(S(=O)(=O)OC2CC3CCC2C3)cc1 (stereo not drawn)
inactive: dose: 100.0 mg/kg/injection, schedule: Q01DX009 (ip), vehicle: other 107 % of control | dose: 200.0 mg/kg/injection, schedule: Q01DX009 (ip), vehicle: other 100 % of control | dose: 400.0 mg/kg/injection, schedule: Q01DX009 (ip), vehicle: other 102 % of control

CCc1cccc(CC)c1NC(=O)CCl
inactive: [8] 111 % of control | [14] 108 % of control | [9] 104 % of control | [10] 90 % of control | [15] 95 % of control

O=C1NC(=O)N(c2ccccc2)C(=O)/C1=C/c1ccccc1
inactive: [5] 90 % of control | [6] 97 % of control

O=C(C[n+]1ccccc1CO)c1ccc(-c2ccc(C(=O)C[n+]3ccccc3CO)cc2)cc1
inactive: dose: 0.15 mg/kg/injection, schedule: Q04DX003 (ip), vehicle: saline 97 % of control | dose: 0.3 mg/kg/injection, schedule: Q04DX003 (ip), vehicle: saline 96 % of control | dose: 0.6 mg/kg/injection, schedule: Q04DX003 (ip), vehicle: saline 100 % of control

CC1=CC(C)(N=[N+]=[N-])CC(C)(C)C1 (stereo not drawn)
inactive: dose: 37.5 mg/kg/injection, schedule: Q04DX003 (ip), vehicle: saline 107 % of control | dose: 75.0 mg/kg/injection, schedule: Q01DX001 (ip), vehicle: saline 98 % of control | dose: 75.0 mg/kg/injection, schedule: Q04DX003 (ip), vehicle: saline 100 % of control | dose: 150.0 mg/kg/injection, schedule: Q01DX001 (ip), vehicle: saline 92 % of control | dose: 150.0 mg/kg/injection, schedule: Q04DX003 (ip), vehicle: saline 103 % of control

O=C(CCN1CC=C(c2ccccc2)CC1)c1ccc(F)cc1
inactive: dose: 50.0 mg/kg/injection, schedule: Q01DX001 (ip), vehicle: Klucel (hydroxypropylcellulose) (HPC) 93 % of control | [5] 97 % of control

CCCCCCCCCCCCCCCC[N+](C)(C)C1=C([O-])C(=O)N(c2ccc(Cl)c(Cl)c2)C1=O
inactive: dose: 50.0 mg/kg/injection, schedule: Q04DX002 (ip), vehicle: saline with Tween-80 94 % of control | [13] 94 % of control

Cc1ccc(NC(=O)CBr)cc1
inactive: dose: 50.0 mg/kg/injection, schedule: Q01DX001 (ip), vehicle: other 96 % of control
